What was measured:
[1] = tested on: Salmonella typhimurium Strain TA98; test: Ames test for mutagenity (OECD 471); type: cell-based
Text: Due to the availability of different grades of Solvent Orange 63 for the corrosion tests, we decided to submit them all to an Ames test, one of several genotoxicity assays for the assessment of product safety.
The Ames test is a screening for the mutagenic effect of substances on microorganisms, cells and tissue cultures and therefore their potential carcinogenic effect. This relies on the observation that the most common cause of cancer is somatic mutations brought about by DNA damage. Chemicals that damage bacterial DNA, and induce mutations, are therefore likely to cause mutations in mammalian cells. Assay is done using bacteria, which gives fast and relatively cheap results and avoids the controversial tests on animals.
The strains used are among those recommended by OECD 471: Salmonella typhimurium and Escherichia coli.
Solvent Orange 63 as prepared above was subjected to Ames test for mutagenity. The strains used are among those recommended by OECD 471: Salmonella typhimurium and E. coli.

[2] = LLNA test for skin sensitization (OECD Guideline 429); type: in vivo; details: OECD Guideline 429, suitable vehicle, for example acetone:olive oil (4+1)
Text: We further submitted the same samples to a LLNA screening, in order to assess the potential skin sensitization properties of the product.
The Local Lymph Node Assay (LLNA) is an alternative to the guinea pig sensitization test which is employed by the pharmaceutical, chemical, consumer product and cosmetic industries to identify and characterize substances with immunotoxic properties.
Solvent Orange 63 as prepared above was subjected to LLNA test for skin sensitization, according to OECD Guideline 429 in suitable vehicle, for example acetone:olive oil (4+1).

[3] = in the presence of S9 mix (metabolic activation)

## O=c1c2ccccc2c2ccc3sc4ccccc4c4ccc1c2c34 [Solvent Orange 63 from Sample A, C.I. Solvent Orange 63]
[1]; [3]
  mutagenic to Salmonella typhimurium Strain TA98: not mutagenic
[2]
  skin sensitization (LLNA): not skin sensitizers

## O=c1c2ccccc2c2ccc3sc4ccccc4c4ccc1c2c34 [Solvent Orange 63 from Sample B, C.I. Solvent Orange 63]
[1]; [3]
  mutagenic to Salmonella typhimurium Strain TA98: not mutagenic
[2]
  skin sensitization (LLNA): not skin sensitizers

## O=c1c2ccccc2c2ccc3sc4ccccc4c4ccc1c2c34 [Solvent Orange 63 from Sample C, C.I. Solvent Orange 63]
[1]; [3]
  mutagenic to Salmonella typhimurium Strain TA98: not mutagenic
[2]
  skin sensitization (LLNA): skin sensitizers

## O=c1c2ccccc2c2ccc3sc4ccccc4c4ccc1c2c34 [Solvent Orange 63 from Sample D, C.I. Solvent Orange 63]
[1]; with or without liver microsomal activation (S9 mix)
  mutagenic to Salmonella typhimurium Strain TA98: mutagenic
[2]
  skin sensitization (LLNA): skin sensitizers
